Laboratory results: patent US12090149B2, “SMAD3 inhibitors” (Moexa Pharmaceuticals Limited, priority 2018, dated 2024)
Read-outs that look alike come from different tables or passages of the source.

How the values were obtained:
B16-F10 syngeneic model = assay: Subcutaneous B16-F10 syngeneic model, tumor growth; format: in vivo, C57BL/6 mice; details: 30 mg/kg q.d. * 3W i.p.
[1] = Body weight of tumor bearing mice in the B16-F10 syngeneic model; format: in vivo, C57BL/6 mice
Description: • Animal species and strain: C57BL/6 mice • History of treatment: Naive • Sex, age and weight: Female, 6-8 weeks • Breeder/supplier: Shanghai SLAC Laboratory Animal Co. Ltd • Adaptation: At least 7 days • Room: SPF Room • Room temperature: 20-26° C. • Room relative humidity: 40-70% • Light cycle: Fluorescent light for 12-hour light (08:00-20:00) and 12-hour dark • Animal hosting: 2-5 mice/cage each group • Food: Free access to food • Water: Free access to water (municipal tap water filtered by reverse osmosis or high-pressure sterilizer)
B16-F10 cells (3×10^5 in 100 μL of serum-free medium) were inoculated to each of C57BL/6 mice via s.c. under anesthesia by 3-4% isoflurane. Each group contains 15 mice.
When average tumor volume reached 35-60 mm^3, 15 mice were randomized into group 6. The day of inoculation was denoted as day 0.
Body weight was measured on Day 4, 5, 6, 8, 11, 13, 15 and 18 after inoculation. When required, body weight was measured daily.
Results were expressed as mean±S.E.M. Comparisons between two groups were made by Dunnett's multi-comparison test, p<0.05 were considered as significant.

[2] = Aqueous solubility assay (shake-flask, LC/MS/MS); format: physicochemical
CYP2D6 = target: T1, CYP2D6 (Homo sapiens, UniProt P10635); assay: Cytochrome P450 inhibition assay, human liver microsomes, CYP2D6; format: in vitro ADME
T1 construct: CONSTRUCT DETAILS: Microsomes; from tissue; host or cells: human liver microsomes
T1 sequence (P10635 whole entry): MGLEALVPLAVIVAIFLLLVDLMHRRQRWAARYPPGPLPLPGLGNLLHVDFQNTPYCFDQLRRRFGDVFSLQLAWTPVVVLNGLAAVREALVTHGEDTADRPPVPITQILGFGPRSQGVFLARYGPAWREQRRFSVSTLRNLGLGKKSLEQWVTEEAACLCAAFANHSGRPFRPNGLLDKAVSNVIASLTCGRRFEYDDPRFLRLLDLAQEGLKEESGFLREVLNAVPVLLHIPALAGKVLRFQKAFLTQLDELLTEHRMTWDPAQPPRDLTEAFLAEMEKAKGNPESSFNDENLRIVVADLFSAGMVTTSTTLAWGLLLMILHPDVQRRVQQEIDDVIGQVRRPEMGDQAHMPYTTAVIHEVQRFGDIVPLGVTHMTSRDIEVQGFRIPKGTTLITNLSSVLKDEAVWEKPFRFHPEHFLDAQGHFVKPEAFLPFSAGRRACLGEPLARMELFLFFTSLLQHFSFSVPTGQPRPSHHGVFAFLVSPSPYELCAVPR

CYP2C9 = target: T2, CYP2C9 (Homo sapiens, UniProt P11712); assay: Cytochrome P450 inhibition assay, human liver microsomes, CYP2C9; format: in vitro ADME
T2 construct: CONSTRUCT DETAILS: Microsomes; from tissue; host or cells: human liver microsomes
T2 sequence (P11712 whole entry): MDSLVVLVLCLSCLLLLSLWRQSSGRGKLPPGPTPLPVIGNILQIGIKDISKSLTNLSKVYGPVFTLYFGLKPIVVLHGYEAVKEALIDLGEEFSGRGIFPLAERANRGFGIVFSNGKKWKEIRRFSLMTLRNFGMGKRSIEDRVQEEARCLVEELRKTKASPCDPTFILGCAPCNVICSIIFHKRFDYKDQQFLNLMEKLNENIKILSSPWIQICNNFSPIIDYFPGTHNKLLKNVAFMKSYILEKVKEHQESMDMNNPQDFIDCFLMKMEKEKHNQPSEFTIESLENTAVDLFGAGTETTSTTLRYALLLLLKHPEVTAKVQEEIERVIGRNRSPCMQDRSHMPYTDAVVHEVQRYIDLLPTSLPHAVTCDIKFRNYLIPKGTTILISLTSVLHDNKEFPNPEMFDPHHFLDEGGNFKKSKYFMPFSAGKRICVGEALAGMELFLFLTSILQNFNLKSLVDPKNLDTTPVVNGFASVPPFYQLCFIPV
Description: • SUBSTRATE: Diclofenac

[3] = Aqueous solubility assay (shake-flask, LC/MS/MS); format: physicochemical; details: for solubility at 24 h: thermodynamic from solid, read-out: Conc. Of Sample (ug/mL), aqueous solubility; for solubility at 24 h / Conc. Of Sample (ug/mL), aqueous solubility: 25° C., SIS3 hydrochloride salt, MO-00005 free base, 24 hours
Description: Poorly soluble compounds can dramatically reduce productivity in drug discovery and development. Solubility assays involve assessment of kinetic solubility (from DMSO stock solution) using a shake-flask technique in a plate format and LC/MS/MS analysis.
• Analytical Column: YMC ODS-AM S-3 120A, 3×50 mm column with Guard. • Flow Rate: 500 ul/min • Mobil Phase: Isocratic 50% acetonitrile: 50% 20 mM Ammonium Acetate pH 4. Back Pressure: 1400 psi • Column Temperature: Ambient, • Autosampler Setting: Injection Volume: 5 ul, Loop Volume: 100 ul, Tray Temperature: 4° C. • Needle wash: Vial position 100. Needle wash solution: 50% Methanol water
• Component Mass Molarity • Sodium bicarbonate (mw: 84 g/mol) 0.11628 g 0.0461 M • Sodium carbonate (anhydrous) (mw: 106 g/mol) 0.17127 g 0.0539 M • Tris Buffer pH 7.7 (100 mL) • Add 0.363 g of tris to 30 mL water. Check pH at room temperature the pH should be 7.7 with acetic acid. • Acetate Buffer pH 3.6 (30 mL) • Component Mass Molarity • Sodium Acetate (anhydrous) (mw: 82 g/mol) 0.01188 g 0.0048 M • Acetic Acid (mw: 60.05 g/mol) 0.17145 g 0.0952 M (0.17145 g=[…])
Then run all samples at this dilution. • (xi) Run samples in duplicate and estimate aqueous solubility.
As such, it may be expected that the hydrochloride salt will have better solubility in unbuffered aqueous solutions. There the thermodynamic equilibrium dissolution concentrations of both compounds were determined also in buffered solutions at pH 4, 7.7, and 10.4 in addition to unbuffered water.

[4] = Day 13, calculated based on tumor volume of Day 8
[5] = Day 15, calculated based on tumor volume of Day 8
[6] = Day 18, calculated based on tumor volume of Day 8
[7] = 10 mg/kg q.d. * 3W i.p., Day 11
[8] = 10 mg/kg q.d. * 3W i.p., Day 13
[9] = 10 mg/kg q.d. * 3W i.p., Day 15
[10] = 10 mg/kg q.d. * 3W i.p., Day 18
[11] = 30 mg/kg q.d. * 3W i.p., Day 11
[12] = 30 mg/kg q.d. * 3W i.p., Day 13
[13] = 30 mg/kg q.d. * 3W i.p., Day 15
[14] = 30 mg/kg q.d. * 3W i.p., Day 18

Row | SMILES | Tumor growth inhibition (%) TGI (B16-F10 syngeneic model; [4]) [%] | Tumor growth inhibition (%) TGI (B16-F10 syngeneic model; [5]) [%] | Tumor growth inhibition (%) TGI (B16-F10 syngeneic model; [6]) [%] | Body weight (g) Mean ([1]; 10 mg/kg q.d. * 3W i.p., Day 1) [g] | Body weight (g) Mean ([1]; 10 mg/kg q.d. * 3W i.p., Day 4) [g] | Body weight (g) Mean ([1]; 10 mg/kg q.d. * 3W i.p., Day 5) [g] | Body weight (g) Mean ([1]; 10 mg/kg q.d. * 3W i.p., Day 6) [g] | Body weight (g) Mean ([1]; 10 mg/kg q.d. * 3W i.p., Day 8) [g] | Body weight (g) Mean [1, 7] [g] | Body weight (g) Mean [1, 8] [g] | Body weight (g) Mean [1, 9] [g] | Body weight (g) Mean [1, 10] [g] | Body weight (g) Mean ([1]; 30 mg/kg q.d. * 3W i.p., Day 1) [g] | Body weight (g) Mean ([1]; 30 mg/kg q.d. * 3W i.p., Day 4) [g] | Body weight (g) Mean ([1]; 30 mg/kg q.d. * 3W i.p., Day 5) [g] | Body weight (g) Mean ([1]; 30 mg/kg q.d. * 3W i.p., Day 6) [g] | Body weight (g) Mean ([1]; 30 mg/kg q.d. * 3W i.p., Day 8) [g] | Body weight (g) Mean [1, 11] [g] | Body weight (g) Mean [1, 12] [g] | Body weight (g) Mean [1, 13] [g] | further results
1 | COc1cc2c(cc1OC)CN(C(=O)/C=C/c1c(-c3ccccc3)nc3ccccn13)CC2 [Compound 8, (E)-1-(6,7-dimethoxy-3,4-dihydroisoquinolin-2(1H)-yl)-3-(2-phenylimidazo[1,2-a]pyridin-3-yl)prop-2-en-1-one] | 39 | 26 | 18 | 16.73 | 16.41 | 16.26 | 16.21 | 16.67 | 17.33 | 17.51 | 18.85 | 21.26 | 16.70 | 16.54 | 16.32 | 16.18 | 16.60 | 17.36 | 17.78 | 18.73 | Body weight (g) Mean [1, 14]: 20.93 g; Body weight (g) Mean ([1]; 100 mg/kg q.d. * 3W i.p. (group 6), Day 11): 17.20 g; Body weight (g) Mean ([1]; 100 mg/kg q.d. * 3W i.p. (group 6), Day 13): 17.95 g; Body weight (g) Mean ([1]; 100 mg/kg q.d. * 3W i.p. (group 6), Day 15): 18.78 g; Body weight (g) Mean ([1]; 100 mg/kg q.d. * 3W i.p. (group 6), Day 18): 21.82 g; Body weight (g) Mean ([1]; 100 mg/kg q.d. * 3W i.p. (group 6, randomized at tumor volume 35-60 mm^3), Day 8): 17.36 g; solubility at 24 h ([2]; aqueous buffer pH 10.63, aqueous buffer, thermodynamic from solid, pH 10.63 buffer, 25° C., 24 hours, SIS3 hydrochloride salt, MO-00005 free base, read-out: Conc. Of Sample (ug/mL), aqueous solubility): 280 µg/mL; aqueous solubility relative to the solubility of SIS3 ([2]; pH 10.63): 117 times; inhibition at 10 µM (CYP2D6; probe dextromethorphan, dextromethorphan substrate, read-out: CYP2D6 inhibition (HLM, dextromethorphan substrate) Inhibition (%)): -2.74%; inhibition at 10 µM (CYP2C9; probe diclofenac, diclofenac substrate, read-out: CYP2C9 inhibition (HLM, diclofenac substrate) Inhibition (%)): 66.9%; solubility at 24 h ([3]; aqueous buffer pH 4.03, aqueous buffer, pH 4.03 buffer): 598 µg/mL; solubility at 24 h ([3]; aqueous buffer pH 7.70, pH 7.7, aqueous buffer, pH 7.70 buffer): 269 µg/mL; aqueous solubility relative to the solubility of SIS3 ([3]; pH of 4.0): 35 times; solubility at 24 h ([3]; unbuffered water): 321 µg/mL
2 | COc1cc2c(cc1OC)CN(C(=O)/C=C/c1c(-c3ccccc3)n(C)c3ncccc13)CC2.Cl [SIS3, reference compound] | 39 | 27 | 25 | 16.72 | 16.64 | 16.55 | 16.50 | 16.83 | 17.53 | 17.84 | 19.04 | 20.77 | 16.72 | 16.66 | 16.55 | 16.59 | 16.69 | 17.30 | 17.53 | 18.45 | Body weight (g) Mean [1, 14]: 20.70 g; Conc. Of Sample (ug/mL), aqueous solubility ([2]; pH 10.63 buffer, 25° C., 24 hours, SIS3 hydrochloride salt, MO-00005 free base): 2.4 µg/mL; CYP2D6 inhibition (HLM, dextromethorphan substrate) Inhibition (%) (CYP2D6; 10 uM): 19.1641%; CYP2C9 inhibition (HLM, diclofenac substrate) Inhibition (%) (CYP2C9; 10 uM): 79.7661%; Conc. Of Sample (ug/mL), aqueous solubility ([3]; pH 4.03 buffer): 17.2 µg/mL; Conc. Of Sample (ug/mL), aqueous solubility ([3]; pH 7.70 buffer): 7.0 µg/mL; Conc. Of Sample (ug/mL), aqueous solubility ([3]; unbuffered water): 17.7 µg/mL
